Measurements as given in PubChem BioAssay (NCI).
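In this assay, cells in 96-well plates receive the compound at five concentrations for 48 hours. Endpoints are linearly interpolated between the surrounding concentrations. GI50 is the concentration that inhibits growth by half. At the TGI there is no net growth.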

Experiments:
Experiment in all cases: DTP human tumour cell line panel, 48 h
[1] = tested on: A549 NSCLC
[2] = tested on: HCC-2998 colon
[3] = tested on: NCI-H460 lung
[4] = tested on: OVCAR-8 ovarian
[5] = tested on: SF-295 CNS
[6] = tested on: SF-539 CNS
[7] = tested on: SK-OV-3 ovarian
[8] = tested on: UACC-62 melanoma
[9] = tested on: NCI-H522 lung
[10] = tested on: DU-145 prostate

CC(=O)[CH-]C(=O)c1ccccc1.CC(=O)[CH-]C(=O)c1ccccc1.[Eu+3].[OH-].[OH3+]
GI50 [1]: > 100 µM | TGI [1]: > 100 µM | GI50 [2]: > 100 µM | TGI [2]: > 100 µM | GI50 [3]: > 100 µM | TGI [3]: > 100 µM | GI50 [4]: > 100 µM | TGI [4]: > 100 µM | GI50 [5]: > 100 µM | TGI [5]: > 100 µM | GI50 [6]: > 100 µM | TGI [6]: > 100 µM | GI50 [7]: > 100 µM | TGI [7]: > 100 µM | GI50 [8]: > 100 µM | TGI [8]: > 100 µM

CCC1(c2c(F)c(F)c(N)c(F)c2F)CCC(=O)NC1=O (configuration not stated)
TGI [1]: > 100 µM | TGI [2]: > 100 µM | TGI [3]: > 100 µM | TGI [9]: > 100 µM | TGI [4]: > 100 µM | TGI [5]: > 100 µM | TGI [6]: > 100 µM | TGI [7]: > 100 µM | TGI [8]: > 100 µM

O=[N+]([O-])c1nccn1CC(O)CN1CC1 (configuration not stated)
TGI [1]: > 100 µM | TGI [3]: > 100 µM | TGI [9]: 50.9 µM | TGI [4]: > 100 µM | TGI [5]: > 100 µM | TGI [6]: > 100 µM | TGI [7]: 94.7 µM | TGI [8]: > 100 µM

CN(C)c1ccc([O][Bi]([Cl])[Cl])cc1
GI50 [1]: > 100 µM | TGI [1]: > 100 µM | GI50 [2]: 42.5 µM | TGI [2]: > 100 µM | GI50 [3]: > 100 µM | TGI [3]: > 100 µM | GI50 [4]: 53.2 µM | TGI [4]: > 100 µM | GI50 [5]: > 100 µM | TGI [5]: > 100 µM | GI50 [6]: > 100 µM | TGI [6]: > 100 µM | GI50 [7]: > 100 µM | TGI [7]: > 100 µM | GI50 [8]: > 100 µM | TGI [8]: > 100 µM

Cc1ccccc1C(=O)c1ccccc1O
TGI [1]: > 100 µM | TGI [2]: > 100 µM | TGI [3]: > 100 µM | TGI [4]: > 100 µM | TGI [5]: > 100 µM | TGI [6]: > 100 µM | TGI [7]: > 100 µM | TGI [8]: > 100 µM

COC(=O)C(=O)OC1(C(C)=O)CC2(c3ccccc3)OC1(c1ccccc1)c1ccccc12 (configuration not stated)
TGI [1]: 31.3 µM | TGI [2]: 31.4 µM | TGI [3]: 36.2 µM | TGI [9]: 34.7 µM | TGI [4]: 30.3 µM | TGI [5]: 31.4 µM | TGI [6]: 26.7 µM | TGI [7]: 95.5 µM | TGI [8]: 28.1 µM

CC(=O)[CH-]C(=O)c1ccccc1.CC(=O)[CH-]C(=O)c1ccccc1.CC1(C)C2CCC1(C)C([O-])C2.CC1(C)C2CCC1(C)C([O-])C2.[Ti+4]
GI50 [1]: 23.9 µM | TGI [1]: > 100 µM | GI50 [2]: 38.5 µM | TGI [2]: > 100 µM | GI50 [3]: 47.7 µM | TGI [3]: > 100 µM | GI50 [4]: 44.9 µM | TGI [4]: > 100 µM | GI50 [5]: 38.9 µM | TGI [5]: > 100 µM | GI50 [6]: 17.8 µM | TGI [6]: 45.9 µM | GI50 [7]: 20.8 µM | TGI [7]: 74.1 µM | GI50 [8]: 16.7 µM | TGI [8]: 51.3 µM

CC1(CO)OC(n2cc(C(=O)NC(=O)OCc3ccccc3)c(=O)[nH]c2=O)CC1O (configuration not stated)
TGI [1]: > 100 µM | TGI [3]: > 100 µM | TGI [9]: > 100 µM | TGI [4]: > 100 µM | TGI [5]: > 100 µM | TGI [6]: > 100 µM | TGI [7]: > 100 µM | TGI [8]: > 100 µM

CCCCCCCCCCCCCC(=O)CC(=O)c1c(O)cccc1O
TGI [1]: > 100 µM | TGI [2]: > 100 µM | TGI [3]: 91.9 µM | TGI [9]: 59.1 µM | TGI [4]: > 100 µM | TGI [5]: > 100 µM | TGI [6]: > 100 µM | TGI [7]: > 100 µM | TGI [8]: > 100 µM

N#Cc1c(NN)nc(NN)c(C#N)c1-c1ccccc1
TGI [1]: > 100 µM | TGI [2]: > 100 µM | TGI [3]: > 100 µM | TGI [4]: > 100 µM | TGI [5]: > 100 µM | TGI [6]: > 100 µM | TGI [7]: > 100 µM | TGI [8]: > 100 µM

CC(=O)[CH-]C(=O)c1ccccc1.CC(=O)[CH-]C(=O)c1ccccc1.CC(C)CCCC(C)[C@H]1CCC2[C@@H]3CC=C4C[C@@H]([O-])CC[C@]4(C)C3CC[C@@]21C.CC[O-].[Ti+4] (some centres not stated)
GI50 [1]: > 100 µM | TGI [1]: > 100 µM | GI50 [2]: 62.6 µM | TGI [2]: > 100 µM | GI50 [3]: 44.8 µM | TGI [3]: > 100 µM | GI50 [9]: 26.3 µM | TGI [9]: 71.2 µM | GI50 [4]: 46.3 µM | TGI [4]: > 100 µM | GI50 [5]: 40.9 µM | TGI [5]: > 100 µM | GI50 [6]: 34.1 µM | TGI [6]: > 100 µM | GI50 [7]: > 100 µM | TGI [7]: > 100 µM | GI50 [8]: 82.3 µM | TGI [8]: > 100 µM

O=c1cc2ccccc2nn1Cc1cccc(Cl)c1
TGI [1]: > 100 µM | TGI [2]: > 100 µM | TGI [3]: > 100 µM | TGI [4]: > 100 µM | TGI [5]: > 100 µM | TGI [6]: > 100 µM | TGI [7]: > 100 µM | TGI [8]: > 100 µM

C[S+](C)CCOC(=O)C(=[N+]=[N-])c1ccc([N+](=O)[O-])cc1
TGI [1]: > 100 µM | TGI [2]: > 100 µM | TGI [3]: > 100 µM | TGI [9]: > 100 µM | TGI [4]: > 100 µM | TGI [5]: > 100 µM | TGI [6]: > 100 µM | TGI [7]: > 100 µM | TGI [8]: > 100 µM

COc1c(OC)c(OC)c2c(c1OC)c(=O)c1ccccc1n2C
TGI [1]: > 100 µM | TGI [10]: > 100 µM | TGI [2]: > 100 µM | TGI [9]: > 100 µM | TGI [4]: > 100 µM | TGI [5]: > 100 µM | TGI [6]: > 100 µM | TGI [7]: > 100 µM | TGI [8]: > 100 µM

CCCCCC/C=C1\CCC(CN2CCCC2)C1=O (configuration not stated)
TGI [1]: 37 µM | TGI [2]: 31.6 µM | TGI [3]: > 62.1 µM | TGI [9]: 3.29 µM | TGI [4]: 39.2 µM | TGI [5]: 34.1 µM | TGI [6]: 34.1 µM | TGI [7]: 33 µM | TGI [8]: 35.9 µM

CC(C)c1ccc(C2C3=C(N=C4SCC(=O)N42)C(=O)c2ccccc23)cc1 (configuration not stated)
TGI [1]: > 100 µM | TGI [2]: > 100 µM | TGI [3]: > 100 µM | TGI [9]: 98.7 µM | TGI [4]: > 100 µM | TGI [5]: > 100 µM | TGI [6]: > 100 µM | TGI [7]: > 100 µM | TGI [8]: > 100 µM

CCC/C(=N/N=C(N)N)c1ccc(NC(=O)c2cc3cc(OC)ccc3[nH]2)cc1
GI50 [1]: 13.1 µM | TGI [1]: 38.1 µM | GI50 [10]: 3.57 µM | TGI [10]: 12 µM | GI50 [2]: 15.1 µM | TGI [2]: 39 µM | GI50 [9]: 12.7 µM | TGI [9]: 33.9 µM | GI50 [4]: 12.7 µM | TGI [4]: 39.1 µM | GI50 [5]: 10.5 µM | TGI [5]: 25.8 µM | GI50 [6]: 8.65 µM | TGI [6]: 30.8 µM | GI50 [7]: 13.9 µM | TGI [7]: 29.6 µM | GI50 [8]: 14.7 µM | TGI [8]: 35 µM

O=C(CC1(O)C(=O)Nc2c(Cl)ccc(Cl)c21)c1ccc2ccccc2c1 (configuration not stated)
TGI [1]: 39.6 µM | TGI [2]: 35.6 µM | TGI [3]: 25.5 µM | TGI [9]: 9.24 µM | TGI [4]: 38.3 µM | TGI [5]: 27.7 µM | TGI [6]: 35.5 µM | TGI [7]: 33.5 µM | TGI [8]: 10.7 µM

c1ccc2[nH]c(-c3ccc(NN=Nc4ccncc4)cc3)nc2c1
GI50 [1]: > 100 µM | TGI [1]: > 100 µM | GI50 [10]: 47 µM | TGI [10]: > 100 µM | GI50 [3]: 2.46 µM | TGI [3]: > 100 µM | GI50 [9]: 77.6 µM | TGI [9]: > 100 µM | GI50 [4]: 5.57 µM | TGI [4]: > 100 µM | GI50 [5]: 16.4 µM | TGI [5]: > 100 µM | GI50 [7]: > 100 µM | TGI [7]: > 100 µM | GI50 [8]: 75.1 µM | TGI [8]: > 100 µM
